What was measured:
Rap-1 = Rap-1 activation assay, ACHN cells; type: cell-based, human; details: 10 μM, 1 hour
Procedure: The effect of B2AR stimulation on Rap1 was investigated using the following methods: A Rap-1 activation assay kit (Upstate, Temecula, Calif.) was used according to protocol to determine if stimulation of the B2AR by ARA-211, and subsequent downstream signaling resulting in inhibition of P-Erk 1/2, is mediated by activation of Rap-1 directly by the Rap-1 guanine nucleotide exchange factor Epac. […] Cells were incubated with drugs for 1 hour unless noted otherwise. Cells were then lysed, the positive control lysate was incubated with 10 mM EDTA and 100 μM GTPγS and incubated for 30 minutes to load GTP onto Rap-1. Lysates from all samples were then incubated with 25 μg GST-RalGDS-Rap-1 binding domain beads for 45 minutes, washed with assay buffer 3×, resuspended in 40 μl of 2×Laemmli sample buffer and boiled for 5 minutes. Samples were resolved by SDS-PAGE electrophoresis, transferred to nitrocellulose, blotted overnight with 1 μ/ml polyclonal anti-Rap-1, and visualized by chemiluminescence.

P-Erk 1/2 = P-Erk 1/2 levels (Western blotting), MDA-MB-231; type: cell-based, human; details: MDA-MB-231; with ARA-211
Procedure: Western Blotting—Treated cell samples were lysed in 30 mM HEPES, 10 mM NaCl, 5 mM MgCl2, 25 mM NaF, 1 mM EGTA, 1% Triton-X-100, 10% Glycerol, 2 mM Sodium orthovanidate, 10 μg/mL aprotinin, 10 μg/mL soybean trypsin inhibitor, 25 μg/mL leupeptin, 2 mM phenylmethylsulfonylfluoride (PMSF), 6.4 mg/mL p-nitrophenylphosphate for 30 minutes at 4° C., and proteins run on SDS-PAGE gels then transferred to nitrocellulose membranes. Membranes were blocked in either 5% milk in PBS, pH 7.4, containing 0.1% Tween-20 (PBS-T) or 1% BSA in TBS, pH 7.5, containing 0.1% Tween-20 (TBS-T). Phospho-STAT3 and phospho-AKT antibodies were diluted in 1% BSA in TBS-T while phospho-c-Raf, phospho-Mek, and phospho-p44/p42 MAPK antibodies (Cell Signaling) were diluted in 5% milk in PBS-T for either 1 hour at room temperature or overnight at 4° C. HRP-conjugated secondary antibodies (Jackson ImmunoResearch, West Grove, Pa.) were diluted in 5% milk in PBS-T or TBS-T at a 1:1000 dilution for one hour at room temperature. Western blots results were visualized using enhanced chemiluminescence. Stripping of the membranes for reblotting was done using stripping buffer (62.5 mM Tris pH 7.6, 2% SDS, 0.7% 2-mercaptoethanol) at 50° C. for 30 minutes.

MDA-MB-231 cells = test: Alamar Blue proliferation assay, MDA-MB-231; type: cell-based, human; details: MDA-MB-231; with ARA-211
Procedure: Cell Lines and Transfections—All cell lines used were obtained from American Type Tissue Collection (ATCC), (Manassas, Va.), or from the DCTD Tumor Repository, (Frederick, Md.). Propagation was carried out according to ATCC protocols. Propagation media was obtained from Invitrogen Corporation (Carlsbad, Calif.). DNA transfections were carried out using TransIT-LT1 transfection reagent (Takara Mirus, Madison, Wis.) according to the manufacturer's protocol. Briefly, 4×10^5 MDA-MB-231 cells were grown to approximately 70% confluency in medium supplemented with 10% FBS (Atlanta Biologicals, Atlanta, Ga.) in the absence of antibiotics. For transfection, LT1 was pre-incubated in 200 μl per transfection in Opti-MEM (Invitrogen) for 20 minutes prior to addition of plasmid. […]
Alamar Blue proliferation assay—For proliferation assays using exogenous constitutively activated MEK or the B2AR antagonist ICI-118.551, Alamar Blue metabolism assay used to determine cell viability according to the manufacturers protocol (Biosource, Camarillo, Calif.). […] Media/Alamar Blue was removed from the cells and aliquoted into 96 well plates (100 μl per well) and fluorescence read on a Wallac Victor 2 plate reader at excitation 540 nm, and emission 615 nm.

Mek-1 = target: T1, Mek-1 (Homo sapiens, UniProt Q02750); test: In vitro kinase assay, Mek-1 immunoprecipitated from MDA-MB-231 cells; type: biochemical; details: immunoprecipitated kinase treated in vitro, 10 μM
T1 construct: c-Raf-1 and Mek-1, immunoprecipitated from MDA-MB-231 cells; endogenous in cells; host or cells: MDA-MB-231
Procedure: In Vitro Kinase Assays—MDA-MB-231 cells (2×10^6) were lysed for 30 minutes at 4° C. in RIPA-150 buffer (10 mM Tris pH 7.5, 150 mM NaCl, 10% glycerol, 5 mM EDTA, 1% Triton X-100, 0.1% SDS, 100 μM sodium orthovanadate, 1 μM aprotinin, 10 μM leupeptin, 10 μM antipain). Cell debris was pelleted at 13000 rpm for 15 minutes at 4° C. and the lysate was rocked overnight with 10 μg of either c-Raf or MEK antibodies (Santa Cruz Biotechnologies, Santa Cruz, Calif.). 25 μl of protein A/G PLUS agarose (Santa Cruz Biotechnology) was then added and rocked for 4 hours at 4° C. Samples were spun at 2000 rpm for 5 minutes to collect the agarose beads, which were then washed four times with lysis buffer. On the final wash each pellet was divided into 5. […]

T1 sequence (Q02750 whole entry): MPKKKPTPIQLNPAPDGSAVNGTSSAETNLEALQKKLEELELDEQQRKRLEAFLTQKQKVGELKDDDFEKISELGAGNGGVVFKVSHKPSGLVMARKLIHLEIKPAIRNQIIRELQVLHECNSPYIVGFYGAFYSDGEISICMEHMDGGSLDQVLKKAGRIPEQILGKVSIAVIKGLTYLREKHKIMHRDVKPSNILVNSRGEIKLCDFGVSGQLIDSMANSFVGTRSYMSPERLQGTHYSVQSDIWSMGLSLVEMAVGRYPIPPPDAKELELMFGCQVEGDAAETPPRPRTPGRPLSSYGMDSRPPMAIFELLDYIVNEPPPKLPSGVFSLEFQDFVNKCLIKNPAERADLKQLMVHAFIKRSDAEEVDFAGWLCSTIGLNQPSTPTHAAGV

CO[C@@H]1[C@@H]2OP(=O)(O)OC[C@H]2O[C@H]1n1c(Sc2ccc(Cl)cc2)nc2c(N)ncnc21 [EPAC activator, 8-(4-chlorophenylthio)-2′-O-methyladenosine-3′,5′-cyclic monophosphate]
Rap-1 activation (GTP-loaded Rap-1) (Rap-1): activated Rap-1

O=S(=O)(NCCNC/C=C/c1ccc(Br)cc1)c1cccc2cnccc12 [H89]
Rap-1 activation (GTP-loaded Rap-1) (Rap-1): had no effect on Rap-1 activation

Cc1ccc(OCC(O)C(C)NC(C)C)c2c1CCC2 (stereo not drawn) [ICI 118, 551]
effect of β2 antagonist on ARA-211 suppression of P-Erk 1/2 levels (P-Erk 1/2): prevented ARA-211 from suppressing P-Erk 1/2 levels | effect of β2 AR antagonist on ARA-211 inhibition of tumor cell growth (MDA-MB-231 cells): rescued human cancer cells from ARA-211 inhibition of tumor cell growth

N#CC(=C(/N)Sc1ccccc1N)/C(C#N)=C(\N)Sc1ccccc1N [U-0126]
in vitro Mek-1 kinase activity (Mek-1): blocked

CC(C)NCC(O)c1ccc(O)c(O)c1 (stereo not drawn) [isoproterenol]
Rap-1 activation (GTP-loaded Rap-1) (Rap-1): activated Rap-1
